Assay results taken from US20240376052A1, “N-SUBSTITUTED INDOLE DERIVATIVES AS SEROTONERGIC AGENTS USEFUL FOR THE TREATMENT OF DISORDERS RELATED THERETO” (Mindset Pharma Inc., priority 2021, published 2024).
Read-outs that look alike come from different tables or passages of the source.

Key:
Sprague-Dawley rats = test: Drug discrimination in the rat (5-MeO-DMT cue); type: in vivo; conditions: for ED50: Rattus norvegicus, read-out: ED50, generalization to the 5-MeO-DMT cue; for dose required to show generalization to the 5-MeO-DMT cue: oral administration
Protocol: Male Sprague-Dawley rats were initially food restricted by presentation of 18-20 g food at day end (single housing). After 7 days acclimatisation to the food restriction procedure, they were trained daily to lever press for food (45 mg Bioserve pellet) in standard 2-lever operant conditioning chambers controlled by Med-PC software over a period of 1 week (Med. Associates Ins., St. Albans, VT). The rats were trained to lever press for food to an FR10 value (i.e 10 lever presses for a single food reward). Once stable food responding was acquired to both response levers, discrimination training began. […] Training sessions lasted 30-min or until the delivery of 50 pellets and continued until the animals attained appropriate stimulus control (defined as six consecutive sessions where animals made no more than 16 lever presses before the delivery of the first reward, and at least 95% total responses on the appropriate lever). The rats continued to receive daily food ration in their home cage at day end.
Once trained, tests of substitution were conducted. […] Test sessions continued until 50 pellets had been obtained or 30 min had elapsed. During these sessions response rate was also measured.

human 5-HT2A receptor = human 5-HT2A receptor (Homo sapiens (Human), UniProt P28223); test: Human 5-HT2A radioligand binding assay ([3H]-ketanserin)
mice [1] = test: Mouse 5-HT syndrome assay; type: in vivo; conditions: for signs of 5-HT syndrome: doses of up to 30 mg/kg
Protocol: (§1) The effect of different doses of representative compounds of Formula I were evaluated on head-twitch response (HTR) and other behavioural responses indicative of serotonin syndrome as behavior-based models of psychedelic activity.

C57BL/6J mice = test: Mouse head twitch; type: in vivo; conditions: for head twitch response: doses of up to 30 mg/kg; for duration of HT expression: at 10-30 mg/kg
Protocol: as §1
Male, C57BL/6J mice (body weight range 20-30 g) were dosed with the appropriate dose of test article, and following a 1-minute pre-treatment time, placed in individual observation chambers. Animals were visually assessed for the incidence head twitches continuously over a 1 hr period. Head twitches were defined as a rapid jerk of the head which was not elicited by an external tactile stimulus (Come and Pickering, Psychopharmacologia, 1967, 11(1): 65-78). Each head twitch was individually counted by a trained observer, and the data expressed as the mean+SEM of 6-10 mice per group. Mice were used in a single experiment only.

mice [2] = test: Mouse locomotor activity and rearing assay; conditions: 1-30 mg/kg, compared with 5-MeO-DMT
[3] = Liver microsomes stability, dog; conditions: for Remaining Percentage (%): Dog
[4] = Liver microsomes stability, human; conditions: for Remaining Percentage (%): Human
Protocol: (§2) The objective of this study was to estimate in vitro metabolic stability of representative compounds of the application in pooled human and male mouse liver microsomes. The concentrations of parent compounds in reaction systems were evaluated by LC-MS/MS for estimating the stability in pooled human and male mouse liver microsomes. The in vitro intrinsic clearances of test compounds were determined as well.
(§3) A master solution in the “Incubation Plate” containing phosphate buffer, ultra-pure H2O, MgCl2 solution and liver microsomes was made according to Table 3. The mixture was pre-warmed at 37° C. water bath for 5 minutes.
(§4) 40 μL of 10 mM NADPH solution was added to each well. The final concentration of NADPH was 1 mM. The negative control samples were prepared by replacing NADPH with 40 μL of ultra-pure H2O. Samples were prepared in duplicate. Negative controls were prepared in singlet.
(§5) The reaction was started with the addition of 4 μL of 200 μM test compounds or control compounds to each master solution to get the final concentration of 2 μM. This study was performed in duplicate.
(§6) Aliquots of 50 μL were taken from the reaction solution at 0, 15, 30, 45 and 60 minutes. The reaction solutions were stopped by the addition of 4 volumes of cold methanol with IS (100 nM alprazolam, 200 nM imipramine, 200 nM labetalol and 2 μM ketoprofen). Samples were centrifuged at 3,220 g for 40 minutes. Aliquot of 90 μL of the supernatant was mixed with 90 μL of ultra-pure H2O and then was used for LC-MS/MS analysis.
(§7) LC/MS analysis was performed for all samples from this study using a Shimadzu liquid chromatograph separation system equipped with degasser DGU-20A5R; solvent delivery unit LC-30AD; system controller SIL-30AC; column oven CTO-30A; CTC Analytics HTC PAL System. Mass spectrometric analysis was performed using an Triple Quad™ 5500 instrument.
(§8) All calculations were carried out using Microsoft Excel. Peak area ratios of test compound to internal standard (listed in the below table) were determined from extracted ion chromatograms.
(§9) All calculations were carried out using Microsoft Excel. Peak areas were determined from extracted ion chromatograms. The slope value, k, was determined by linear regression of the natural logarithm of the remaining percentage of the parent drug vs. incubation time curve.
(§10) The in vitro half-life (in vitro t1/2) was determined from the slope value:
(§11) Conversion of the in vitro t1/2(min) into the in vitro intrinsic clearance (in vitro CLint, in μL/min/mg proteins) was done using the following equation (mean of duplicate determinations): […]

[5] = Liver microsomes stability, mouse; conditions: for Remaining Percentage (%): Mouse
Protocol: as §2, §3, §4, §5, §6, §7, §8, §9, §10, §11

[6] = Liver microsomes stability, rat; conditions: for Remaining Percentage (%): Rat
Protocol: as §2, §3, §4, §5, §6, §7, §8, §9, §10, §11

[2H]C([2H])(c1cn(C(=O)CCCCCCC/C=C\C/C=C\CCCCC)c2ccc(OC)cc12)[C@H]1CCCN1C([2H])([2H])[2H] [Compound I-3, (9Z,12Z)-1-(5-Methoxy-3-(((R)-1-(methyl-d3)pyrrolidin-2-yl)methyl-d2)-1H-indol-1-yl)octadeca-9,12-dien-1-one]
ED50 (Sprague-Dawley rats; SC administration, FIG. 8): ~6 mg/kg | dose required to show generalization to the 5-MeO-DMT cue (Sprague-Dawley rats; FIG. 8): 100 mg/kg | IC50 (human 5-HT2A receptor): < 2000 nM | signs of 5-HT syndrome (mice [1]): no signs of 5-HT syndrome | head twitch response (C57BL/6J mice; mouse): robust head twitch response

CCCCC/C=C\C/C=C\CCCCCCCC(=O)n1cc(CCN(C)C)c2cc(OC)ccc21 [Compound I-1, (9Z,12Z)-1-(3-(2-(Dimethylamino)ethyl)-5-methoxy-1H-indol-1-yl)octadeca-9,12-dien-1-one]
motor activity or rearing (mice [2]): did not reduce motor activity or rearing to the same extent as 5-MeO-DMT | IC50 (human 5-HT2A receptor): < 2000 nM | signs of 5-HT syndrome (whole body twitches, FPT, Straub tail) (mice [1]; up to 60 mg/kg SC): did not induce signs of 5-HT syndrome | head twitch response expression (C57BL/6J mice; mouse, 1-60 mg/kg SC): robust head twitch response | ED50 (C57BL/6J mice; mouse, SC, read-out: ED50, head twitch response): 2.8 mg/kg | duration of HT expression (C57BL/6J mice; mouse): 0 to 30 min

COc1ccc2[nH]cc(CCN(C)C)c2c1 [Compound 5-MeO-DMT, 5-methoxy-dimethoxytryptamine, reference compound]
ED50, generalization to the 5-MeO-DMT cue (Sprague-Dawley rats; SC administration, FIG. 8): ~0.2 mg/kg | dose required to show generalization to the 5-MeO-DMT cue (Sprague-Dawley rats; FIG. 8): 10 mg/kg | ED50, head twitch response (C57BL/6J mice; mouse, SC): 8 mg/kg | duration of HT expression (C57BL/6J mice; mouse): 0 to 20 min

COc1cccc([C@H](O)C2CCN(CCc3ccc(F)cc3)CC2)c1OC [Compound M100907, reference compound]
effect of antagonist pretreatment on HTR induced by I-1 (C57BL/6J mice; mice pretreated with M100907 prior to I-1): completely blocked

[2H]C([2H])(c1cn(C(=O)CCCCCCC/C=C\C/C=C\CCCCC)c2ccccc12)[C@H]1CCCN1C([2H])([2H])[2H] [Compound I-2, (9Z,12Z)-1-(3-(((R)-1-(Methyl-d3)pyrrolidin-2-yl)methyl-d2)-1H-indol-1-yl)octadeca-9,12-dien-1-one]
Predicted hepatic CL ([3]; Dog liver microsomes): 22.14 mL/min/kg | Remaining Percentage (%) ([3]; With NADPH, 0 min): 100.00% | Remaining Percentage (%) ([3]; With NADPH, 30 min): 66.91% | Remaining Percentage (%) ([3]; With NADPH, 60 min): 39.08% | Remaining Percentage (%) ([3]; Without NADPH, 0 min): 100.00% | Remaining Percentage (%) ([3]; Without NADPH, 30 min): 94.42% | Remaining Percentage (%) ([3]; Without NADPH, 60 min): 91.63% | CLint scaled at 2 μM ([3]; dog, microsomes): 78.1 mL/min/kg | half-life at 2 μM ([3]; dog, microsomes): 44.3 min | microsomal CLint at 2 μM ([3]; dog, microsomes): 31.3 µL/min/mg | ED50 (Sprague-Dawley rats): ~30 mg/kg | level of partial generalization to the 5-MeO-DMT cue (Sprague-Dawley rats; rats trained to 1 mg/kg 5-MeO-DMT vs saline, FIG. 7): ~60% | IC50 (human 5-HT2A receptor): < 2000 nM | Predicted hepatic CL ([4]; Human liver microsomes): 5.79 mL/min/kg | Remaining Percentage (%) ([4]; With NADPH, 0 min): 100.00% | Remaining Percentage (%) ([4]; With NADPH, 30 min): 87.61% | Remaining Percentage (%) ([4]; With NADPH, 60 min): 82.52% | Remaining Percentage (%) ([4]; Without NADPH, 0 min): 100.00% | Remaining Percentage (%) ([4]; Without NADPH, 30 min): 114.91% | Remaining Percentage (%) ([4]; Without NADPH, 60 min): 83.75% | CLint scaled at 2 μM ([4]; human, microsomes): 8.03 mL/min/kg | half-life at 2 μM ([4]; human, microsomes): 216 min | microsomal CLint at 2 μM ([4]; human, microsomes): 6.4 µL/min/mg | Predicted hepatic CL ([5]; Mouse liver microsomes): 50.97 mL/min/kg | Remaining Percentage (%) ([5]; With NADPH, 0 min): 100.00% | Remaining Percentage (%) ([5]; With NADPH, 30 min): 71.53% | Remaining Percentage (%) ([5]; With NADPH, 60 min): 44.66% | Remaining Percentage (%) ([5]; Without NADPH, 0 min): 100.00% | Remaining Percentage (%) ([5]; Without NADPH, 30 min): 95.81% | Remaining Percentage (%) ([5]; Without NADPH, 60 min): 80.93% | CLint scaled at 2 μM ([5]; male, mouse, microsomes): 118 mL/min/kg | half-life at 2 μM ([5]; male, mouse, microsomes): 51.6 min | microsomal CLint at 2 μM ([5]; male, mouse, microsomes): 26.9 µL/min/mg | Predicted hepatic CL ([6]; Rat liver microsomes): 27.34 mL/min/kg | Remaining Percentage (%) ([6]; With NADPH, 0 min): 100.00% | Remaining Percentage (%) ([6]; With NADPH, 30 min): 56.08% | Remaining Percentage (%) ([6]; With NADPH, 60 min): 40.37% | Remaining Percentage (%) ([6]; Without NADPH, 0 min): 100.00% | Remaining Percentage (%) ([6]; Without NADPH, 30 min): 94.64% | Remaining Percentage (%) ([6]; Without NADPH, 60 min): 84.47% | CLint scaled at 2 μM ([6]; rat, microsomes): 54.2 mL/min/kg | half-life at 2 μM ([6]; rat, microsomes): 45.8 min | microsomal CLint at 2 μM ([6]; rat, microsomes): 30.2 µL/min/mg | signs of 5-HT syndrome (mice [1]): no signs of 5-HT syndrome | head twitch response (C57BL/6J mice; mouse): robust head twitch response
